# Key:
# [1] = test system: Panc02 tumors; assay: In vivo anti-tumor study in Panc02 tumor-bearing mice; settings: i.v. three times at an interval of three days; for anti-tumor activity of PGEM loaded with CCR2 inhibitor: 10 mg/kg for CCR2 inhibitor; for inhibition of Panc02 tumor growth (therapeutic efficacy): GEM: 20 mg/kg, PF: 10 mg/kg
# Experimental: In vivo anti-tumor study. The antitumor effect was evaluated in syngeneic mice bearing Panc02 tumors. In brief, 1×10^5 Panc02 cells were inoculated into the right flank of female C57BL/6 mice. When the tumor volume reached ˜50 mm^3, the mice started to receive different treatments. […]. In a separate study, the synergistic tumor inhibition effect of PF and GEM was evaluated by intravenously injecting saline, free GEM, free PF, free GEM+PF, PGEM, and PGEM/PF (GEM: 20 mg/kg; PF: 10 mg/kg), respectively, into the Panc02 tumor-bearing mice. These treatments were also performed three times at an interval of three days. The tumor volumes and body weights were continuously monitored. At the endpoint, the tumor tissues and major organs were fixed in 10% formalin and dehydrated. Then they were embedded in paraffin and sectioned, followed by H&E staining with for histopathological examination. The biochemical parameters, including WBCs, RBCs, Hb, AST, ALT, and creatinine, were evaluated for safety profiles. The effect of PGEM/PF on the inhibition of lung metastasis of pancreatic cancer was also evaluated. A pulmonary metastasis model of pancreatic cancer was established by injecting KPC cells via tail vein. On day 10 following tumor cell inoculation, mice were i.v. administered with saline, free GEM+PF, PGEM, and PGEM/PF, respectively. The treatment was performed at day 10, day 14, and Day 18, and the mice were sacrificed at day 20.
# [2] = test system: Panc02 cells; assay: MTT cytotoxicity assay; assay type: cell-based, Murine; settings: 96 h
# Experimental: MTT assay. Panc02 cells were seeded in 96-well plates at a density of 1500 cells/well with 100 μL of complete culture medium (DMEM with 10% FBS and 1% streptomycin/penicillin). After overnight incubation, Panc02 cells were treated with various concentrations of saline, free PF, free BMS, free Bind, free GEM, free GEM+PF, PGEM, PGEM/PF, PGEM/BMS, and PGEM/Bind micelles. After 96 h, the cytotoxicity was determined by MTT assay. The absorbance of each well was measured at 590 nm and the cell viability was determined via the following formula: (ODtreated−ODblank)/(ODcontrol−ODblank)×100%.
# [3] = Release of PF from PGEM/PF micelles (dialysis method); assay type: physicochemical; settings: 37° C., PBS with 0.5% tween 80, 24 h
# Experimental: Release of PF from PGEM/PF micelles. The release of PF from PGEM/PF micelles was examined at 37° C. via a dialysis method with free PF as a control. PF-loaded PGEM micelles was transferred into a dialysis bag with MWCO of 3500 Da, which was then incubated in 50 mL PBS with 0.5% (w/v) tween 80 under gentle shaking. At specific time intervals, all the PBS solution outside the dialysis bag was withdrawn and replaced with another 50 mL of fresh solution. The PF concentrations in the solution were determined by HPLC.
# [4] = test system: Panc02 tumors; assay: Quantification of tumor-infiltrating immune cells by flow cytometry; assay type: in vivo, mice; settings: i.v. every three days for three times
# Experimental: Quantification of tumor-infiltrating lymphocytes by flow cytometry. Syngeneic C57BL/6 mice bearing Panc02 tumors received various treatments (saline, free GEM, free PF, free GEM+PF, PGEM, and PGEM/PF) via i.v. administration every three days for three times. Tumors were collected at 24 h following the last treatment. Single cell suspensions were prepared according to previous literature. See Wan, Z., et al., Science Advances, 7 (50), eabj4226 (2021). Then the cells were stained with various antibodies (Table 1) for flow cytometry analysis. For intracellular cytokine (IFN-γ and GZB) staining, cells were stimulated with PMA (100 ng/mL) and lonomycin (500 ng/mL) for 5 h in the presence of Monensin. Cells were fixed/permeabilized using the BD Cytofix/Cytoperm kit prior to cell staining. Then, the fixed/permeabilized cells were suspended in residual Intracellular Staining Perm Wash Buffer and a predetermined optimum concentration of fluorophore-conjugated antibody of interest was added (e.g. PE anti-IFN-γ) for 30 minutes. The data were analyzed using FlowJo software (available from Becton Dickenson & Company pf Ashland, OR). The percentage of cytokine (IFN-γ or GZB)-producing NK and CD8^+ T cells was gated under total NK and CD8^+ T cells, respectively, which represents the percentage of total NK or CD8^+ T that are IFN-γ or GZB positive.
# [5] = cited from earlier work
# [6] = test system: Panc02 tumor tissues; assay: Bulk RNA-Seq of Panc02 tumor tissues; assay type: in vivo, mice
# Experimental: Bulk RNA-Seq Analysis. The Panc02 tumor-bearing mice were intravenously injected with saline, GEM and PGEM once every three days for 3 times, respectively. One day after last injection, the tumors were harvested for RNA sequencing (RNA-seq), which was performed by the Health Sciences Sequencing Core at Children's Hospital at University of Pittsburgh. RNA-Seq libraries were sequenced as 75-bp paired-end reads at a depth of ˜73-77 million reads per sample. Reads were mapped to the mouse genome (GRCm38) using STAR Aligner 2.6.1a. Gene expression quantification and differential expression analysis was performed on Saline, GEM, and PGEM treated tumor samples using RSEM 1.3.1 and Cuffdiff of Cufflinks 2.2.1. Volcano plots were generated to show the overall differential expression between pairwise comparisons among these three groups, where the x-axis indicates the log-transformed fold changes (log 2FC) and the y-axis indicates the corresponding negative log-transformed p-values (−log10(p-value)). The Gene Set Enrichment Analysis (GSEA), via GSEA software available from Broad Institute, Inc. of Cambridge, MA, was further performed based on the gene lists ranked by the log 2FC among three groups.
# [7] = test system: cGAS in Panc02 cells; assay: Picogreen staining and immunofluorescence for cGAS-bound micronuclei; assay type: cell-based, Murine; settings: compared with control and PVD-treated groups
# Experimental: (§1) Immunofluorescence Microscopy. Panc02 cells were seeded on chamber slides and treated with saline, free GEM, PGEM micelles, and PVD micelles, respectively. For all immunofluorescence staining, cells were washed in PBS, fixed in 4% formaldehyde/PBS for ten minutes at room temperature (RT) and permeabilized in 0.25% Triton/PBS for 20 minutes at RT. Blocking was performed in 5% BSA/0.1% Triton/PBS for 30 minutes, followed by incubation with primary antibodies in blocking buffer for one hour at 37° C. incubator. Cells were washed in PBS and incubated with secondary antibodies in blocking buffer for one hour at RT, followed by washing and mounting on coverslips using ProLong Gold antifade reagent with DAPI. Cells were imaged using confocal microscope at the specified magnification. For picogreen-cGAS staining, cells were incubated with pico488 DNA quantification reagent for 2 hours at 37° C. For γH2AX staining, permeabilized cells were blocked in Serum-free DAKO Protein Block for one hour at RT. Cells were incubated in primary antibody (γH2AX, 1:500; anti-HA, 1:100) in DAKO antibody (available from Agilent of Santa Clara, CA) diluent at 4° C. overnight on a rocker platform.
# [8] = test system: STING pathway in Panc02 cells; assay: Western blotting of STING pathway-related proteins; assay type: cell-based, Murine
# Experimental: Western blotting. Western blotting was performed to evaluate the STING activation in cultured Panc02 cells. Cells grown in six-well plates with 80% confluency were treated with saline, free GEM, PGEM micelles, and PVD micelles, respectively, for 48 h. Then, the cultured Panc02 cells were washed twice with pre-cooled PBS and lysed in Pierce™ RIPA buffer (available from Thermo Fischer Scientific of Pittsburgh, PA) for 30 min in 4° C. Protein concentrations were determined by BCA method, and equal amounts of total protein lysate were resolved on a 10% SDS-PAGE and subsequently transferred to a nitrocellulose membrane. Membranes were blocked with 5% non-fat milk in PBS for 1 h prior to incubation with various antibodies targeting IRF3, P-IRF3, STING, P-STING, and Cyclin B dissolved in PBST (DPBS with 0.1% Tween 20) overnight at 4° C. The blots were washed with PBST and then probed with goat antirabbit IgG for 1 h at room temperature followed by chemiluminescence detection by SuperSignal™ West Fento Maximum Sensitivity Substrate (available from Thermo Fischer Scientific). Q-Actin or GAPDH was used as a loading control.
# [9] = test system: Panc02 cells; assay: γH2AX foci immunofluorescence (DNA double strand break marker); assay type: cell-based, Murine
# Experimental: as §1
# [10] = test system: Panc02 cells; assay: qRT-PCR in cultured Panc02 cells; assay type: cell-based, Murine
# Experimental: qRT-PCR. Panc02 cells grown in six-well plates were treated with saline, free GEM, PGEM micelles, and PVD micelles, respectively, for 48 h. Then, RNA was isolated using the PureLinkTM RNA kit (InvitrogenTM available from Thermo Fisher Scientific) and reverse transcribed using the High-Capacity cDNA Reverse Tran--scription Kit (available from Applied Biosystems/Thermo Fisher Scientific) based on the manufacturer's guidelines. qPCR was performed using Power SYBR Green PCR MasterMix (Applied Biosystems) in a QuantStudio 3 Real-Time PCR System (Applied Biosystems). In a separate study, Panc02 cells grown in six-well plates were treated with PGEM for 72 h. One day after adding PGEM into the wells, control siRNA (siNC) or STING siRNA ([…]) was added into the wells without changing the medium, and incubated for 48 h. Then the RNA was extracted, and CCL2, CCL7 and ISG15 expression levels were detected as described above. In another study, whether CCL2, CCL7 and ISG15 were induced by type I IFNs was evaluated. Panc02 cells grown in six-well plates were treated with PGEM for 72 h. One day after adding PGEM into the wells, isotype control (10 μg/mL) or IFNAR1 antibody (10 μg/mL) was added into the wells without changing the medium, and incubated for 48 h. Then, the RNA was extracted subjected to qRT-PCR analysis of the mRNA expression levels of CCL2, CCL7 and ISG15.
# [11] = Cuffdiff P<0.05, i.v. once every three days for 3 times
PF diffused out of dialysis bag within 24 h [3],Structure (SMILES),anti-tumor activity of PGEM loaded with CCR2 inhibitor [1],anti-tumor activity of PGEM loaded with CCR2 inhibitor ([1]; listed as PF),inhibition of Panc02 tumor growth (therapeutic efficacy) [1],cytotoxicity [2],percentage of MDSCs and TAMs in tumors [4],bioavailability [5],solubility [5],"genes significantly downregulated [6, 11] [genes]","genes significantly upregulated [6, 11] [genes]","CCL2 and CCL7 gene expression (RNAseq) ([6]; mouse, in vivo)","ISG15 expression (RNAseq) ([6]; mouse, in vivo)",signals of cGAS-bound micronuclei [7],IRF3 and STING phosphorylation ([8]; 48 h),normalized protein levels of pIRF3 and pSTING ([8]; compared with saline and PVD polymer-treated groups),formation of γH2AX foci [9],"CCL2, CCL7 and ISG15 expression [10]"
over 95%,"O=C(NCC(=O)N1CC[C@H](N[C@H]2CC[C@@](O)(c3ccc(-c4ncccn4)cn3)CC2)C1)c1cccc(C(F)(F)F)c1 [PF-04136309, N-(2-((S)-3-(((1r,4S)-4-hydroxy-4-(5-(pyrimidin-2-yl)pyridin-2-yl)cyclohexyl)amino)pyrrolidin-1-yl)-2-oxoethyl)-3-(trifluoromethyl)benzamide]",best combination effect,best results,modest effect,slight cytotoxicity,decrease,low bioavailability,poor solubility,,,,,,,,,
,"Nc1ccn([C@@H]2O[C@H](CO)[C@@H](O)C2(F)F)c(=O)n1 [GEM, Gemcitabine]",,,modest effect,,,,,489,416,upregulation,upregulated,significantly increased,significantly induced,significantly higher,induced,similarly induced
,"CC(=O)N[C@@H]1C[C@H](NC(C)(C)C)CC[C@@H]1N1CC[C@H](Nc2ncnc3cc(C(C)(C)C)nn23)C1=O [BMS813160, N-[(1R,2S,5R)-5-[(1,1-dimethylethyl)amino]-2-[(3S)-3-[[7-(1,1-dimethylethyl)pyrazolo[1,5-a]-1,3,5-triazin-4-yl]amino]-2-oxo-1-pyrrolidinyl]cyclohexyl]-acetamide]",,,,,,low bioavailability,poor solubility,,,,,,,,,

# Reference: patent US20240325565A1, “COMBINATION TREATMENT FOR SOLID TUMORS INCLUDING A STING AGONIST AND A CCR2 ANTAGONIST” (University of Pittsburgh - Of the Commonwealth System of …, priority 2023, published 2024)
